According to patent publication US6355799B1, “Substituted benzene compounds, process for their preparation, and herbicidal and defoliant compositions containing them” (ISK Americas Incorporated, priority 1997, dated 2002):

Experiments:
Assay type in all cases: in vivo
[1] = tested on: redroot pigweed (Amaranthus retroflexus, AMARE); experiment: Pre-emerge test, greenhouse herbicide activity screening; settings: phytotoxicity rating 0-100, 14 days after application
How it was run: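 Compounds in acetone were track-sprayed at 15-1000 g ai/ha (187 l/ha) on sandy loam pots: pre-emerge one day after seeding, post-emerge at 2-3 leaf stage with 0.25% v/v non-ionic surfactant. Phytotoxicity was rated 14 days later on a 0 (no damage) to 100 (complete death) scale.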

[2] = tested on: green foxtail (Setaria viridis, SETVI); experiment: as above; settings: phytotoxicity rating 0-100, 14 days after application
Text: (§1) A standard greenhouse herbicide activity screening system was used to evaluate the herbicidal efficacy and crop safety of these test compounds. Seven broadleaf weed species including redroot pigweed (Amaranthus retroflexus, AMARE, velvetleaf (Abutilon theophrasti, ABUTH), sicklepod (Cassia obtusifolia, CASOB), ivyleaf morningglory (Ipomoea hederacea, IPOHE), lambsquarters (Chenopodium album, CHEAL), common ragweed (Ambrosia artemisizfolia L., AMBEL), and cocklebur (Xanthium strumarium, XANST) were used as test species. Four grass weed species including green foxtail (Setaria viridis, SETVI), barnyardgrass (Echinochloa crus-galli, ECHCG), johnsongrass (Sorghum halepense, SORHA), and large crabgrass (Digitaria sanguinalis, DIGSA) were also used. In addition, three crop species, field corn (Zea mays L., var. Dekalb 535, CORN), soybean (Glycine max L., var. Pella 86, SOY), and is upland rice (Oryza sp., var. Tebonnet, RICE) were included.
(§2) All plants were grown in 10 cm square plastic pots which were filled with a sandy loam soil mix. For pre-emerge tests, seeds were planted one day prior to application of the test compounds. For post-emerge tests, seeds were planted 8-21 days prior to the test to allow emergence and good foliage development prior to application of the test substances. At the time of the post-emerge application, plants of all species were usually at the 2-3 leaf stage of development.
(§3) All test compounds Were dissolved in acetone and applied to the test units in a volume of 187 l /ha. Test materials were applied at rates ranging from 15 g ai/ha to 1000 g ai/ha using a track sprayer equipped with a TJ8001E even flow flat fan spray nozzle. Plants were arranged on a shelf so that the top of the canopy (post-emerge) or top of the soil surface (pre-emerge) was 40-45 cm below the nozzle. Pressurized air was used to force the test solution through the nozzle as it was mechanically advanced (via electrically driven chain drive) over the top of all test plants/pots. This application simulates a typical commercial field herbicide application.
(§4) In the post-emerge test, a commercial non-ionic surfactant was also included (0.25% v/v) to enhance wetting of the leaf surfaces of target plants. Immediately after application, test units of the pre-emerge applications were watered at the soil surface to incorporate the test materials. Subsequently, these test units were bottom-watered. Post-emerge test units were always bottom-watered.
(§5) At 14 days after application of the test materials, phytotoxicity ratings were recorded. A rating scale of 0-100 was used as previously described in Research Methods in Weed Science, 2nd edition, B. Truelove, Ed., Southern Weed Science Society, Auburn University, Auburn, Ala. 1977. Briefly, “0” corresponds to no damage and “100” corresponds to complete death of all plants in the test unit. This scale was used both to determine efficacy against weed species and damage to crop species. Herbicide activity data for various compounds of this invention, which are shown by compound No. in Tables 1-8, are shown in Tables 11 and 12.

[3] = tested on: ivyleaf morningglory (Ipomoea hederacea, IPOHE); experiment: as above; settings: phytotoxicity rating 0-100, 14 days after application
Text: as §1, §2, §3, §4, §5

[4] = tested on: velvetleaf (Abutilon theophrasti, ABUTH); experiment: as above; settings: phytotoxicity rating 0-100, 14 days after application
Text: as §1, §2, §3, §4, §5

[5] = tested on: lambsquarters (Chenopodium album, CHEAL); experiment: as above; settings: phytotoxicity rating 0-100, 14 days after application
Text: as §1, §2, §3, §4, §5

[6] = tested on: barnyardgrass (Echinochloa crus-galli, ECHCG); experiment: as above; settings: phytotoxicity rating 0-100, 14 days after application
Text: as §1, §2, §3, §4, §5

[7] = tested on: sicklepod (Cassia obtusifolia, CASOB); experiment: as above; settings: phytotoxicity rating 0-100, 14 days after application
Text: as §1, §2, §3, §4, §5

[8] = tested on: large crabgrass (Digitaria sanguinalis, DIGSA); experiment: as above; settings: phytotoxicity rating 0-100, 14 days after application
Text: as §1, §2, §3, §4, §5

[9] = tested on: green foxtail (Setaria viridis, SETVI); experiment: Post-emerge test, greenhouse herbicide activity screening; settings: post-emerge, 14 days after application, rating scale 0-100
Text: as §1, §2, §3, §4, §5

[10] = tested on: ivyleaf morningglory (Ipomoea hederacea, IPOHE); experiment: as above; settings: post-emerge, 14 days after application, rating scale 0-100
Text: as §1, §2, §3, §4, §5

[11] = tested on: velvetleaf (Abutilon theophrasti, ABUTH); experiment: as above; settings: post-emerge, 14 days after application, rating scale 0-100
Text: as §1, §2, §3, §4, §5

[12] = tested on: lambsquarters (Chenopodium album, CHEAL); experiment: as above; settings: post-emerge, 14 days after application, rating scale 0-100
Text: as §1, §2, §3, §4, §5

[13] = tested on: barnyardgrass (Echinochloa crus-galli, ECHCG); experiment: as above; settings: post-emerge, 14 days after application, rating scale 0-100
Text: as §1, §2, §3, §4, §5

[14] = tested on: redroot pigweed (Amaranthus retroflexus, AMARE); experiment: as above; settings: post-emerge, 14 days after application
Text: as §1, §2, §3, §4, §5

[15] = tested on: sicklepod (Cassia obtusifolia, CASOB); experiment: as above; settings: post-emerge, 14 days after application, rating scale 0-100
Text: as §1, §2, §3, §4, §5

[16] = tested on: large crabgrass (Digitaria sanguinalis, DIGSA); experiment: as above; settings: post-emerge, 14 days after application, rating scale 0-100
Text: as §1, §2, §3, §4, §5

[17] = tested on: upland rice (Oryza sp., var. Tebonnet, RICE); experiment: Pre-emerge test, crop safety; settings: crop damage rating 0-100, 14 days after application
How it was run: (§6)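 Fourteen days after spraying, crop and weed injury was graded visually from 0, no effect, to 100, every plant dead. Test substances were dissolved in acetone and applied at 15–1000 g ai/ha with a flat-fan nozzle. Application was either pre-emergence, one day after sowing, or post-emergence at the 2–3 leaf stage.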

[18] = tested on: field corn (Zea mays L., var. Dekalb 535, CORN); experiment: Pre-emerge test, crop safety; settings: crop damage rating 0-100, 14 days after application
How it was run: as §6

[19] = tested on: upland rice (Oryza sp., var. Tebonnet, RICE); experiment: Post-emerge test, crop safety; settings: post-emerge, 14 days after application, rating scale 0-100
How it was run: (§7)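 Rating: 0–100 visual injury, 14 DAA. Application: acetone, 187 l/ha, 15–1000 g ai/ha, flat-fan track sprayer with nozzle 40–45 cm above soil or canopy. Post-emerge runs used 0.25% v/v surfactant on 2–3 leaf plants.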

[20] = tested on: field corn (Zea mays L., var. Dekalb 535, CORN); experiment: Post-emerge test, crop safety; settings: post-emerge, 14 days after application, rating scale 0-100
How it was run: as §7

COc1c(Cl)cc(F)c(-n2c(=O)cc(C(F)(F)F)n(C)c2=O)c1NC(=O)OCc1cccc(F)c1 [4-44]
Pre-emerge Herbicidal Activity AMARE ([1]; 63 g ai/ha): 100
Pre-emerge Herbicidal Activity AMARE ([1]; 250 g ai/ha): 100
Pre-emerge Herbicidal Activity SETVI ([2]; 63 g ai/ha): 100
Pre-emerge Herbicidal Activity SETVI ([2]; 250 g ai/ha): 100
Pre-emerge Herbicidal Activity IPOHE ([3]; 63 g ai/ha): 100
Pre-emerge Herbicidal Activity IPOHE ([3]; 250 g ai/ha): 100
Pre-emerge Herbicidal Activity ABUTH ([4]; 63 g ai/ha): 100
Pre-emerge Herbicidal Activity ABUTH ([4]; 250 g ai/ha): 100
Pre-emerge Herbicidal Activity CHEAL ([5]; 63 g ai/ha): 100
Pre-emerge Herbicidal Activity CHEAL ([5]; 250 g ai/ha): 100
Pre-emerge Herbicidal Activity ECHCG ([6]; 63 g ai/ha): 80
Pre-emerge Herbicidal Activity ECHCG ([6]; 250 g ai/ha): 95
Pre-emerge Herbicidal Activity CASOB ([7]; 63 g ai/ha): 100
Pre-emerge Herbicidal Activity CASOB ([7]; 250 g ai/ha): 100
Pre-emerge Herbicidal Activity DIGSA ([8]; 63 g ai/ha): 100
Pre-emerge Herbicidal Activity DIGSA ([8]; 250 g ai/ha): 100
phytotoxicity rating SETVI ([9]; 63 g ai/ha): 95
phytotoxicity rating SETVI ([9]; 250 g ai/ha): 90
phytotoxicity rating IPOHE ([10]; 63 g ai/ha): 100
phytotoxicity rating IPOHE ([10]; 250 g ai/ha): 100
phytotoxicity rating ABUTH ([11]; 63 g ai/ha): 100
phytotoxicity rating ABUTH ([11]; 250 g ai/ha): 100
phytotoxicity rating CHEAL ([12]; 63 g ai/ha): 100
phytotoxicity rating CHEAL ([12]; 250 g ai/ha): 100
phytotoxicity rating ECHCG ([13]; 63 g ai/ha): 70
phytotoxicity rating ECHCG ([13]; 250 g ai/ha): 90
phytotoxicity rating AMARE ([14]; 63 g ai/ha, rating scale 0-100 (0 no damage, 100 complete death)): 100
phytotoxicity rating AMARE ([14]; 250 g ai/ha, rating scale 0-100): 100
phytotoxicity rating CASOB ([15]; 63 g ai/ha): 100
phytotoxicity rating CASOB ([15]; 250 g ai/ha): 100
phytotoxicity rating DIGSA ([16]; 63 g ai/ha): 70
phytotoxicity rating DIGSA ([16]; 250 g ai/ha): 95
Pre-emerge Herbicidal Activity RICE ([17]; 63 g ai/ha): 70
Pre-emerge Herbicidal Activity RICE ([17]; 250 g ai/ha): 65
Pre-emerge Herbicidal Activity CORN ([18]; 63 g ai/ha): 70
Pre-emerge Herbicidal Activity CORN ([18]; 250 g ai/ha): 95
phytotoxicity rating RICE (crop damage) ([19]; 63 g ai/ha): 70
phytotoxicity rating RICE (crop damage) ([19]; 250 g ai/ha): 80
phytotoxicity rating CORN (crop damage) ([20]; 63 g ai/ha): 90
phytotoxicity rating CORN (crop damage) ([20]; 250 g ai/ha): 100
